In the kinase profiling compilation of Christmann-Franck et al. (2016):

What was measured:
Experiment in all cases: KINOMEscan competition binding
TGFBR2 (human) = TGFBR2 (human) (UniProt P37173); settings: compound 1.0 µM
CHUK (human) = CHUK (human) (UniProt O15111); settings: compound 1.0 µM
PRKD3 (human) = PRKD3 (human) (UniProt O94806); settings: for kinase still bound, per cent of control: compound 1.0 µM
MAPKAPK2 (human) = MAPKAPK2 (human) (UniProt P49137); settings: compound 1.0 µM
MAPK11 (human) = MAPK11 (human) (UniProt Q15759); settings: compound 1.0 µM
CIT (human) = CIT (human) (UniProt O14578); settings: for kinase still bound, per cent of control: compound 1.0 µM
SIK2 (human) = SIK2 (human) (UniProt Q9H0K1); settings: compound 1.0 µM
MAP3K15 (human) = MAP3K15 (human) (UniProt Q6ZN16); settings: compound 1.0 µM
[1] = system: MET (human), P08581 [M1250T]; settings: compound 1.0 µM
[2] = system: EGFR (human), P00533 [747-751 del / S ins]; settings: compound 1.0 µM
PIP5K1C (human) = PIP5K1C (human) (UniProt O60331); settings: compound 1.0 µM
MAPK4 (human) = MAPK4 (human) (UniProt P31152); settings: compound 1.0 µM
ERN1 (human) = ERN1 (human) (UniProt O75460); settings: compound 1.0 µM
PHKG2 (human) = PHKG2 (human) (UniProt P15735); settings: compound 1.0 µM
MAP2K6 (human) = MAP2K6 (human) (UniProt P52564); settings: compound 1.0 µM
NEK3 (human) = NEK3 (human) (UniProt P51956); settings: compound 1.0 µM
SRC (human) = SRC (human) (UniProt P12931); settings: compound 1.0 µM
PRKCD (human) = PRKCD (human) (UniProt Q05655); settings: compound 1.0 µM
FGFR1 (human) = FGFR1 (human) (UniProt P11362); settings: compound 1.0 µM
CAMK1D (human) = CAMK1D (human) (UniProt Q8IU85); settings: compound 1.0 µM
FES (human) = FES (human) (UniProt P07332); settings: compound 1.0 µM
[3] = system: EGFR (human), P00533 [G719C]; settings: compound 1.0 µM
GAK (human) = GAK (human) (UniProt O14976); settings: compound 1.0 µM
RIPK4 (human) = RIPK4 (human) (UniProt P57078); settings: compound 1.0 µM
PRKAA1 (human) = PRKAA1 (human) (UniProt Q13131); settings: compound 1.0 µM
MAP3K9 (human) = MAP3K9 (human) (UniProt P80192); settings: compound 1.0 µM
GSK3B (human) = GSK3B (human) (UniProt P49841); settings: compound 1.0 µM
PTK6 (human) = PTK6 (human) (UniProt Q13882); settings: compound 1.0 µM
MAP3K11 (human) = MAP3K11 (human) (UniProt Q16584); settings: compound 1.0 µM
MAPK15 (human) = MAPK15 (human) (UniProt Q8TD08); settings: compound 1.0 µM
STK11 (human) = STK11 (human) (UniProt Q15831); settings: compound 1.0 µM
MAP2K3 (human) = MAP2K3 (human) (UniProt P46734); settings: compound 1.0 µM
RAF1 (human) = RAF1 (human) (UniProt P04049); settings: compound 1.0 µM
FLT4 (human) = FLT4 (human) (UniProt P35916); settings: compound 1.0 µM
MKNK2 (human) = MKNK2 (human) (UniProt Q9HBH9); settings: compound 1.0 µM
TIE1 (human) = TIE1 (human) (UniProt P35590); settings: compound 1.0 µM
[4] = system: PIK3CA (human), P42336 [C420R]; settings: compound 1.0 µM
HIPK1 (human) = HIPK1 (human) (UniProt Q86Z02); settings: compound 1.0 µM
SYK (human) = SYK (human) (UniProt P43405); settings: compound 1.0 µM
SRMS (human) = SRMS (human) (UniProt Q9H3Y6); settings: compound 1.0 µM
ITK (human) = ITK (human) (UniProt Q08881); settings: compound 1.0 µM
[5] = system: FGFR3 (human), P22607 [G697C]; settings: compound 1.0 µM
CDK19 (human) = CDK19 (human) (UniProt Q9BWU1); settings: compound 1.0 µM

CIT (human), sequence (O14578 whole entry, looked up): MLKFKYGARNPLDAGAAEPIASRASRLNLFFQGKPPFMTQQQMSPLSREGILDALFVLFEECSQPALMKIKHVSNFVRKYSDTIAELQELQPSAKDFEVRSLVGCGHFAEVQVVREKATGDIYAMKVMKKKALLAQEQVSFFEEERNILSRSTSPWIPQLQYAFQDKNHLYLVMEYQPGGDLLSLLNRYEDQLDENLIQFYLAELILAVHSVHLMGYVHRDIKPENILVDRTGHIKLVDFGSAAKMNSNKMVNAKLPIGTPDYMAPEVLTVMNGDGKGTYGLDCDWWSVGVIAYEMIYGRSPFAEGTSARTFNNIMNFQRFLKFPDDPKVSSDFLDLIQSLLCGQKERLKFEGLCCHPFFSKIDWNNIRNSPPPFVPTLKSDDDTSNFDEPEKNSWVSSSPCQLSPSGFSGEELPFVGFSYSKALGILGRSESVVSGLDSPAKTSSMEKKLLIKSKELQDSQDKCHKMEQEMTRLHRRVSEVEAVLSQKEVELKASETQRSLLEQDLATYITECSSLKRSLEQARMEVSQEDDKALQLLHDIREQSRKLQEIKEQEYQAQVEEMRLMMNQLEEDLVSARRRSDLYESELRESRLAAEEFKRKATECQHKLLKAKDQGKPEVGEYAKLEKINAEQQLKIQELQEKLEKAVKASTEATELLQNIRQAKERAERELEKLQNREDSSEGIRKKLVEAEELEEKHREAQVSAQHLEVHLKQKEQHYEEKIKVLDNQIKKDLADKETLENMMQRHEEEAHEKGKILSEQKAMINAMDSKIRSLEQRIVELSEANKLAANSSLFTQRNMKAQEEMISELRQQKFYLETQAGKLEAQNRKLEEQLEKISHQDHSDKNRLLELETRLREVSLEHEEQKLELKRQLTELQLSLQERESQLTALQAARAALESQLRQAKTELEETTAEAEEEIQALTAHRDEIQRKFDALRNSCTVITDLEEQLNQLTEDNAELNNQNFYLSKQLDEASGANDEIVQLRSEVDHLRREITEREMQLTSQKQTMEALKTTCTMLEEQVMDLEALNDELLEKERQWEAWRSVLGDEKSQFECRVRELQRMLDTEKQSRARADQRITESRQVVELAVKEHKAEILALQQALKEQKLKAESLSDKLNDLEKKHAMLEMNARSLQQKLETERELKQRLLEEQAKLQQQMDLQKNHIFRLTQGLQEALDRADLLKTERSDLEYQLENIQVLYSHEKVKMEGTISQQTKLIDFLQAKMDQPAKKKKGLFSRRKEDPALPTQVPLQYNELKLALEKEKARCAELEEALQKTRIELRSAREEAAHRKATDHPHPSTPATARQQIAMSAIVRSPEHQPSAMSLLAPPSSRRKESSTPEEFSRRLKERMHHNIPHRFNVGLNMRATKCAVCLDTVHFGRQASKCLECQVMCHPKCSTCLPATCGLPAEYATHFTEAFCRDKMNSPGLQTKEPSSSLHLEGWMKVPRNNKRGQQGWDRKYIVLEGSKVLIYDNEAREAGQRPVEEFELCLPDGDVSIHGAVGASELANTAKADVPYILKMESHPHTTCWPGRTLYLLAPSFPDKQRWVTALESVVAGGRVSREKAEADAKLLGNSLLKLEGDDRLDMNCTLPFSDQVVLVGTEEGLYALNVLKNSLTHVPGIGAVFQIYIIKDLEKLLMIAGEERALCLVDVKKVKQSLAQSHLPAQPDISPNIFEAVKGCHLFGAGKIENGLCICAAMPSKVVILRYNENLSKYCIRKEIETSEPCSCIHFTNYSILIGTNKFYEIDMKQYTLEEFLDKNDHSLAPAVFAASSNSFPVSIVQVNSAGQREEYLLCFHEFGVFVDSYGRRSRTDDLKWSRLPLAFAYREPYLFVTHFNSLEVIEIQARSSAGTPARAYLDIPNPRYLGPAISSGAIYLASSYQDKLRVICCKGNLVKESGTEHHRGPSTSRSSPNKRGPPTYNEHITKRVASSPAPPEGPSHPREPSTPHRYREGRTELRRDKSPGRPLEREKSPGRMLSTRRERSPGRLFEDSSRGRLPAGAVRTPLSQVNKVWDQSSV
PRKD3 (human), sequence (O94806 whole entry, looked up): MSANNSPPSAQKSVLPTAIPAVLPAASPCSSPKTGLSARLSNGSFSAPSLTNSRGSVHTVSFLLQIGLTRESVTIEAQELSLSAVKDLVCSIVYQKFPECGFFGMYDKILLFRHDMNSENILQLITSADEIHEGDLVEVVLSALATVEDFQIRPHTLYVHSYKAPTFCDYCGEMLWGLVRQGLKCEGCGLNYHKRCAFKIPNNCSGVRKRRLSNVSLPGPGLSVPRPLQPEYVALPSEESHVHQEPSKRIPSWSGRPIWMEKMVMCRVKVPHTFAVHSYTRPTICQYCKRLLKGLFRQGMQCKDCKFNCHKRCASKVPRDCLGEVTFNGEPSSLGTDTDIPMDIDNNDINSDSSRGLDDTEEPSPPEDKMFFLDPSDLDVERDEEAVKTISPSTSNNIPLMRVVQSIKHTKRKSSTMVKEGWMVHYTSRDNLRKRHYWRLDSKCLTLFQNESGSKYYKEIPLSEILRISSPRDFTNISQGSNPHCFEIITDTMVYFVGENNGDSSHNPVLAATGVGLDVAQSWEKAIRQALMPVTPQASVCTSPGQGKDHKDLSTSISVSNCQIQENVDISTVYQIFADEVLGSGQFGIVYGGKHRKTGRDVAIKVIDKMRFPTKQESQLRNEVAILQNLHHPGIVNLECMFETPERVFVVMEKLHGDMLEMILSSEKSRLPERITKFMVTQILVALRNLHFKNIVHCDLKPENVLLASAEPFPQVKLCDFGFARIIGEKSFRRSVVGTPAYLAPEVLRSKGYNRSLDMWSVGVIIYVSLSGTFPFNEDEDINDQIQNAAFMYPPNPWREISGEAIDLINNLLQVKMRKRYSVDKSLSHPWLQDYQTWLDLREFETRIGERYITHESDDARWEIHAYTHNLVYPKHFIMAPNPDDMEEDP
PRKAA1 (human), sequence (Q13131 whole entry, looked up): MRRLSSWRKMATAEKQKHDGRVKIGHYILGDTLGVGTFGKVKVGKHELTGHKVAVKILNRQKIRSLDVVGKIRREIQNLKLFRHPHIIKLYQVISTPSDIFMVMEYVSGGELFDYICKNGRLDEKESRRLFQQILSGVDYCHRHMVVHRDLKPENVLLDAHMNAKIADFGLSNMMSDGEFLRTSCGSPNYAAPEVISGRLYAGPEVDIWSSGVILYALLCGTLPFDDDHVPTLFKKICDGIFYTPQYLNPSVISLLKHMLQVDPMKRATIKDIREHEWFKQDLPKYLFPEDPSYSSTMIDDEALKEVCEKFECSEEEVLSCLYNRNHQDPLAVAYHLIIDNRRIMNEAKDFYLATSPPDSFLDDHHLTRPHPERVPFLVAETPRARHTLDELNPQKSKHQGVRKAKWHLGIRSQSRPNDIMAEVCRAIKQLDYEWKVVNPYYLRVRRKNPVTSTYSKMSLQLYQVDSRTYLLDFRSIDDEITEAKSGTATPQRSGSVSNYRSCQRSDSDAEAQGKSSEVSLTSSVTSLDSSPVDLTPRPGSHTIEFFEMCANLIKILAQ
RIPK4 (human), sequence (P57078 whole entry, looked up): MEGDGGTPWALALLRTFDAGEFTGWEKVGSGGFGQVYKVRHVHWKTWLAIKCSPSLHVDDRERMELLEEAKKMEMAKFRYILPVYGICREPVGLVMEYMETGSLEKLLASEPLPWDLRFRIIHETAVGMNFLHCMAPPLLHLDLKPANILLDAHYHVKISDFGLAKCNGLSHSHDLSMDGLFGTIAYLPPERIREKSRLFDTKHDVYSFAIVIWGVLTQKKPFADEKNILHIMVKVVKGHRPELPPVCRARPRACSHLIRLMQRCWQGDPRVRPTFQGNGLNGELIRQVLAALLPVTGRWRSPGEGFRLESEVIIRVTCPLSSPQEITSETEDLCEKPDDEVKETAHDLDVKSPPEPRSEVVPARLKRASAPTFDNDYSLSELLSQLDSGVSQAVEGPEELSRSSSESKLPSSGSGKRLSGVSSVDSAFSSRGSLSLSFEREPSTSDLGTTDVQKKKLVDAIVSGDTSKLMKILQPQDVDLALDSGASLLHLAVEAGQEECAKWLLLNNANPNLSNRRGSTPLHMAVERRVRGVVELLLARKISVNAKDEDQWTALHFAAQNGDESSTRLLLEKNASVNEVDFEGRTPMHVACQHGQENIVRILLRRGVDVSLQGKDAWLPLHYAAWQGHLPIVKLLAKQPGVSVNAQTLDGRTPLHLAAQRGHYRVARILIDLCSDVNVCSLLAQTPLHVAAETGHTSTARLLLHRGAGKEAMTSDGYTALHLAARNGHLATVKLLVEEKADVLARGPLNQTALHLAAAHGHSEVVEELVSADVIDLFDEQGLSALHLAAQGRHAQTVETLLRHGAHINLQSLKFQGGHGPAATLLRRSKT
PRKCD (human), sequence (Q05655 whole entry, looked up): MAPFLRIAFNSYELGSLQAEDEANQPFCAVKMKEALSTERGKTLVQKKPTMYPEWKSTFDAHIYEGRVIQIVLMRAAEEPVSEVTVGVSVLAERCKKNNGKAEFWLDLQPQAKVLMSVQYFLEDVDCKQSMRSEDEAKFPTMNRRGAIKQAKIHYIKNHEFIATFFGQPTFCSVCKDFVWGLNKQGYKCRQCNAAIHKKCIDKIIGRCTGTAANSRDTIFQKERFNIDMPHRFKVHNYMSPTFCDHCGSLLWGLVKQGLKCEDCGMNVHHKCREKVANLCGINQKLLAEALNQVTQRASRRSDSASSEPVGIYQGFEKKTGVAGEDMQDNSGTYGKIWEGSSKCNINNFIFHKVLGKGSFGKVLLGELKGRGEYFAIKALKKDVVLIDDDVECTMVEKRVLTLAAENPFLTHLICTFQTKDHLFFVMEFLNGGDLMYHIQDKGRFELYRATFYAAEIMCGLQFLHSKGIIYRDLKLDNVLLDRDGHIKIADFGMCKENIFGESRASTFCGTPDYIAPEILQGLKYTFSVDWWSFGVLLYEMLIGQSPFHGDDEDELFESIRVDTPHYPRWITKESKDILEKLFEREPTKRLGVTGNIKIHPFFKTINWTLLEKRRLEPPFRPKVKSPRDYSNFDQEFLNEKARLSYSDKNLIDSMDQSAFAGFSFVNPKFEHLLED

CN(C)C/C=C/C(=O)Nc1cccc(C(=O)Nc2ccc(Nc3nccc(-c4cccnc4)n3)cc2)c1
kinase still bound, per cent of control (TGFBR2 (human)): 76%
kinase still bound, per cent of control (CHUK (human)): 53%
kinase still bound, per cent of control (PRKD3 (human)): 100%
kinase still bound, per cent of control (MAPKAPK2 (human)): 100%
kinase still bound, per cent of control (MAPK11 (human)): 95%
kinase still bound, per cent of control (CIT (human)): 28%
kinase still bound, per cent of control (SIK2 (human)): 51%
kinase still bound, per cent of control (MAP3K15 (human)): 88%
kinase still bound, per cent of control [1]: 100%
kinase still bound, per cent of control [2]: 74%
kinase still bound, per cent of control (PIP5K1C (human)): 22%
kinase still bound, per cent of control (MAPK4 (human)): 11%
kinase still bound, per cent of control (ERN1 (human)): 78%
kinase still bound, per cent of control (PHKG2 (human)): 64%
kinase still bound, per cent of control (MAP2K6 (human)): 53%
kinase still bound, per cent of control (NEK3 (human)): 6.8%
kinase still bound, per cent of control (SRC (human)): 88%
kinase still bound, per cent of control (PRKCD (human)): 76%
kinase still bound, per cent of control (FGFR1 (human)): 90%
kinase still bound, per cent of control (CAMK1D (human)): 100%
kinase still bound, per cent of control (FES (human)): 100%
kinase still bound, per cent of control [3]: 48%
kinase still bound, per cent of control (GAK (human)): 33%
kinase still bound, per cent of control (RIPK4 (human)): 31%
kinase still bound, per cent of control (PRKAA1 (human)): 92%
kinase still bound, per cent of control (MAP3K9 (human)): 80%
kinase still bound, per cent of control (GSK3B (human)): 78%
kinase still bound, per cent of control (PTK6 (human)): 77%
kinase still bound, per cent of control (MAP3K11 (human)): 67%
kinase still bound, per cent of control (MAPK15 (human)): 7.1%
kinase still bound, per cent of control (STK11 (human)): 67%
kinase still bound, per cent of control (MAP2K3 (human)): 41%
kinase still bound, per cent of control (RAF1 (human)): 100%
kinase still bound, per cent of control (FLT4 (human)): 95%
kinase still bound, per cent of control (MKNK2 (human)): 13%
kinase still bound, per cent of control (TIE1 (human)): 100%
kinase still bound, per cent of control [4]: 100%
kinase still bound, per cent of control (HIPK1 (human)): 3.6%
kinase still bound, per cent of control (SYK (human)): 66%
kinase still bound, per cent of control (SRMS (human)): 100%
kinase still bound, per cent of control (ITK (human)): 85%
kinase still bound, per cent of control [5]: 100%
kinase still bound, per cent of control (CDK19 (human)): 58%

CN(C)C/C=C/C(=O)Nc1cccc(C(=O)Nc2ccc(Nc3nccc(-c4c(-c5ccccc5)nn5ccccc45)n3)cc2)c1
kinase still bound, per cent of control (TGFBR2 (human)): 10%
kinase still bound, per cent of control (CHUK (human)): 93%
Kd (PRKD3 (human)): 240 nM
kinase still bound, per cent of control (PRKD3 (human)): 0%
kinase still bound, per cent of control (MAPKAPK2 (human)): 84%
kinase still bound, per cent of control (MAPK11 (human)): 6.6%
Kd (CIT (human)): 95 nM
kinase still bound, per cent of control (CIT (human)): 0.3%
kinase still bound, per cent of control (SIK2 (human)): 42%
kinase still bound, per cent of control (MAP3K15 (human)): 47%
kinase still bound, per cent of control [1]: 70%
kinase still bound, per cent of control [2]: 3.4%
kinase still bound, per cent of control (PIP5K1C (human)): 87%
kinase still bound, per cent of control (MAPK4 (human)): 94%
kinase still bound, per cent of control (ERN1 (human)): 100%
kinase still bound, per cent of control (PHKG2 (human)): 100%
kinase still bound, per cent of control (MAP2K6 (human)): 56%
kinase still bound, per cent of control (NEK3 (human)): 99%
kinase still bound, per cent of control (SRC (human)): 18%
kinase still bound, per cent of control (PRKCD (human)): 100%
kinase still bound, per cent of control (FGFR1 (human)): 80%
kinase still bound, per cent of control (CAMK1D (human)): 100%
kinase still bound, per cent of control (FES (human)): 100%
kinase still bound, per cent of control [3]: 0.55%
kinase still bound, per cent of control (GAK (human)): 2.4%
kinase still bound, per cent of control (RIPK4 (human)): 100%
kinase still bound, per cent of control (PRKAA1 (human)): 100%
kinase still bound, per cent of control (MAP3K9 (human)): 59%
kinase still bound, per cent of control (GSK3B (human)): 49%
kinase still bound, per cent of control (PTK6 (human)): 82%
kinase still bound, per cent of control (MAP3K11 (human)): 71%
kinase still bound, per cent of control (MAPK15 (human)): 93%
kinase still bound, per cent of control (STK11 (human)): 93%
kinase still bound, per cent of control (MAP2K3 (human)): 58%
kinase still bound, per cent of control (RAF1 (human)): 83%
kinase still bound, per cent of control (FLT4 (human)): 7.8%
kinase still bound, per cent of control (MKNK2 (human)): 100%
kinase still bound, per cent of control (TIE1 (human)): 23%
kinase still bound, per cent of control [4]: 100%
kinase still bound, per cent of control (HIPK1 (human)): 100%
kinase still bound, per cent of control (SYK (human)): 82%
kinase still bound, per cent of control (SRMS (human)): 87%
kinase still bound, per cent of control (ITK (human)): 100%
kinase still bound, per cent of control [5]: 93%
kinase still bound, per cent of control (CDK19 (human)): 100%
